Here are results for four molecules from patent US7833531B2, “Method for treating insulin sensitivity by long-acting GLP-1 receptor mimetibody agonists” (Centocor, Inc., priority 2006, dated 2010).

One data set has as its system diabetic rats. The settings on record: cited from earlier work.
For another data set, the system named is db/db mice. Put plainly: Blood glucose lowering in db/db mice. The data set is classed as in vivo. The settings on record: six week old db/db mice fasted two hours, intravenous; 0.5-4 hours post-dosing; MMB dose 100-fold lower than GLP-1 peptide dose. On the procedure: GLP-1 MMB Lowers Glucose Level in db/db Mice. […] Blood glucose was monitored 0.5, 1, 2, 3, and 4 hours post-dosing.

For data set [1] the following is noted: cited from earlier work.
For data set [2] the following is noted: cited from earlier work. This is another data set of the same source.
Another data set addresses T1, GLP-1R (Rattus norvegicus, UniProt P32301).
T1 construct: endogenous in cells; host or cells: Rinm cells
T1 sequence (P32301 22-463): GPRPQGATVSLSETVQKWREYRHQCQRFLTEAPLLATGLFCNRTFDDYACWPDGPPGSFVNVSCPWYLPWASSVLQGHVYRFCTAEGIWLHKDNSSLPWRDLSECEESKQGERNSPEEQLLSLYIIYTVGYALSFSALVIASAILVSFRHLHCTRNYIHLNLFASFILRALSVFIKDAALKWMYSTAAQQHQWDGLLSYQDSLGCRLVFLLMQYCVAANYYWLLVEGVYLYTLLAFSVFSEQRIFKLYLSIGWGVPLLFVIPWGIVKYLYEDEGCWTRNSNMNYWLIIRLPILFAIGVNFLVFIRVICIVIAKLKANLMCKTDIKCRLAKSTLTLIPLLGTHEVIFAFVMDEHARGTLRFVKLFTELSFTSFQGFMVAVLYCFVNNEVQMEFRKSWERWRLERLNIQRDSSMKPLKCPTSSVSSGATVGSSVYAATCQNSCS
Put plainly: cAMP assay in Rinm cells. Type of data set: cell-based. The settings on record: similar experiment. On the procedure:
cAMP Assay. GLP-1 binds to its receptor, a G-protein coupled receptor, resulting in a dose-dependent increase in the signaling molecule, 3′,5′-cyclic AMP (cAMP). cAMP can be measured with an in vitro assay in cells expressing the GLP-1R (Applied Biosystems). […] The cells were lysed, and the amount of cAMP was determined using a competitive assay that employs an alkaline-phosphatase labeled cAMP conjugate and a chemiluminescent substrate (Tropix® CDPD®).
For orientation: Cyclic AMP is a second messenger, typically raised through Gs and lowered through Gi signalling.

Like-named read-outs stand apart in the source and are kept apart here. Where no end group is shown, it is not given here.

On to `CC[C@H](C)[C@H](NC(=O)[C@H](Cc1ccccc1)NC(=O)[C@H](CCC(=O)O)NC(=O)[C@H](CCCCN)NC(=O)[C@H](C)NC(=O)[C@H](C)NC(=O)[C@H](CCC(N)=O)NC(=O)CNC(=O)[C@H](CCC(=O)O)NC(=O)[C@H](CC(C)C)NC(=O)[C@H](Cc1ccc(O)cc1)NC(=O)[C@H](CO)NC(=O)[C@H](CO)NC(=O)[C@@H](NC(=O)[C@H](CC(=O)O)NC(=O)[C@H](CO)NC(=O)[C@@H](NC(=O)[C@H](Cc1ccccc1)NC(=O)[C@@H](NC(=O)CNC(=O)[C@H](CCC(=O)O)NC(=O)[C@H](C)NC(=O)[C@@H](N)Cc1c[nH]cn1)[C@@H](C)O)[C@@H](C)O)C(C)C)C(=O)N[C@@H](C)C(=O)N[C@@H](Cc1c[nH]c2ccccc12)C(=O)N[C@@H](CC(C)C)C(=O)N[C@H](C(=O)N[C@@H](CCCCN)C(=O)NCC(=O)N[C@@H](CCCNC(=N)N)C(N)=O)C(C)C` [GLP-1 peptide], for which the insulin sensitivity entry in the data set with diabetic rats (acute administration) is reported as “not acute”; with diabetic rats (chronic administration), “significant improvement in insulin sensitivity”. For the same molecule, the blood glucose result in the data set with db/db mice is “lowered blood glucose at 30 minutes, but by 60 minutes, the blood glucose began to increase again”.
Turning to “Byetta™: recently marketed GLP-1 analogue developed by Amylin and Eli Lilly, first identified in the saliva of the gila monster lizard”, the “sustained decrease in body weight” value in data set [1] (during the course of the study) is given as 5-10 pounds. Also, in data set [1] (following 82 weeks of treatment), the HbAlc levels lowered result is “approximately 1%”. Also, the “in vivo half life” value in data set [2] is “less than 30 minutes”.
For “GLP-1 (A2S) MMB in IgG4 scaffold: mimetibody with DPP-IV resistant GLP-1 variant GLP-1 (A2S) in IgG4 scaffold (HSEGTFTSDVSSYLEGQAAKEFIAWLVKGRG; also: in IgG4 mimetibody scaffold)”, the “cAMP levels in Rinm cells relative to wt GLP-1 MMB in IgG4 scaffold” value in the data set with GLP-1R is “significantly higher level than wt GLP-1 MMB in IgG4 scaffold”.
The same measure, in the same setting: with “GLP-1 (A2G) MMB in IgG4 scaffold: mimetibody with DPP-IV resistant GLP-1 variant GLP-1 (A2G) in IgG4 scaffold (HGEGTFTSDVSSYLEGQAAKEFIAWLVKGRG; also: in IgG4 mimetibody scaffold)” the entry was “significantly higher level than wt GLP-1 MMB in IgG4 scaffold”.
